Reference: publication PMC7901646, “Pyrrolo[2′,3′:3,4]cyclohepta[1,2-d][1,2]oxazoles, a New Class of Antimitotic Agents Active against Multiple Malignant Cell Types” (Journal of Medicinal Chemistry, 2020)
Where two headings read alike, the source gives them in different places.

Tests used:
BT-549 = experiment: NCI-60 screen; assay type: cell-based; conditions: Homo sapiens, Breast Cancer
Experimental: (§1) All the synthesized compounds 51–76 were tested at a 10^–5 M concentration for their antitumor activity on the full NCI-60 panel comprising cancer cell lines derived from nine human cancer cell types (leukemia, non-small-cell lung, colon, central nervous system, melanoma, ovarian, renal, prostate, and breast).[50]

NCI-H322M = experiment: NCI-60 screen; assay type: cell-based; conditions: Homo sapiens, Non-Small-Cell Lung Cancer
Experimental: as §1

HS 578T = experiment: NCI-60 screen; assay type: cell-based; conditions: Homo sapiens, Breast Cancer
Experimental: as §1

SK-MEL-28 = experiment: NCI-60 screen; assay type: cell-based; conditions: Homo sapiens, Melanoma
Experimental: as §1

SNB-75 = experiment: NCI-60 screen; assay type: cell-based; conditions: Homo sapiens, CNS Cancer
Experimental: as §1

T-47D = experiment: NCI-60 screen; assay type: cell-based; conditions: Homo sapiens, T47D; Breast Cancer
Experimental: as §1

RPMI-8226 = experiment: NCI-60 screen; assay type: cell-based; conditions: Homo sapiens, Leukemia
Experimental: as §1

OVCAR-8 = experiment: NCI-60 screen; assay type: cell-based; conditions: Homo sapiens, Ovarian Cancer
Experimental: as §1

NCI-H23 = experiment: NCI-60 screen; assay type: cell-based; conditions: Homo sapiens, Non-Small-Cell Lung Cancer
Experimental: as §1

HOP-92 = experiment: NCI-60 screen; assay type: cell-based; conditions: Homo sapiens, Non-Small-Cell Lung Cancer
Experimental: as §1

HCT-116 = experiment: NCI-60 screen; assay type: cell-based; conditions: Homo sapiens, Colon Cancer
Experimental: as §1

OVCAR-4 = experiment: NCI-60 screen; assay type: cell-based; conditions: Homo sapiens, Ovarian Cancer
Experimental: as §1

RXF 393 = experiment: NCI-60 screen; assay type: cell-based; conditions: Homo sapiens, Renal Cancer
Experimental: as §1

MDA-MB-231/ATCC = experiment: NCI-60 screen; assay type: cell-based; conditions: Homo sapiens, Breast Cancer
Experimental: as §1

SF-539 = experiment: NCI-60 screen; assay type: cell-based; conditions: Homo sapiens, CNS Cancer
Experimental: as §1

UACC-62 = experiment: NCI-60 screen; assay type: cell-based; conditions: Homo sapiens, Melanoma
Experimental: as §1

CCRF-CEM = experiment: NCI-60 screen; assay type: cell-based; conditions: Homo sapiens, Leukemia
Experimental: as §1

OVCAR-5 = experiment: NCI-60 screen; assay type: cell-based; conditions: Homo sapiens, Ovarian Cancer
Experimental: as §1

SN12C = experiment: NCI-60 screen; assay type: cell-based; conditions: Homo sapiens, Renal Cancer
Experimental: as §1

MALME-3M = experiment: NCI-60 screen; assay type: cell-based; conditions: Homo sapiens, Melanoma
Experimental: as §1

786–0 = experiment: NCI-60 screen; assay type: cell-based; conditions: Homo sapiens, Renal Cancer
Experimental: as §1

UO-31 = experiment: NCI-60 screen; assay type: cell-based; conditions: Homo sapiens, Renal Cancer
Experimental: as §1

MDA-MB-468 = experiment: NCI-60 screen; assay type: cell-based; conditions: Homo sapiens, Breast Cancer
Experimental: as §1

SNB-19 = experiment: NCI-60 screen; assay type: cell-based; conditions: Homo sapiens, CNS Cancer
Experimental: as §1

HCC-2998 = experiment: NCI-60 screen; assay type: cell-based; conditions: Homo sapiens, Colon Cancer
Experimental: as §1

NCI-H226 = experiment: NCI-60 screen; assay type: cell-based; conditions: Homo sapiens, Non-Small-Cell Lung Cancer
Experimental: as §1

U251 = experiment: NCI-60 screen; assay type: cell-based; conditions: Homo sapiens, U-251; CNS Cancer
Experimental: as §1

HOP-62 = experiment: NCI-60 screen; assay type: cell-based; conditions: Homo sapiens, Non-Small-Cell Lung Cancer
Experimental: as §1

[1] = test system: NCI-60 panel of human cancer cell lines; experiment: NCI in vitro human tumor cell line screening, full panel; assay type: cell-based; conditions: full NCI panel; for GI50: five concentrations 10^–4–10^–8 M, read-out: GI50 (concentration that inhibits 50% net cell growth), range over panel; for MG_MID (mean graph midpoint): arithmetic mean for all tested cancer cell lines
Source text: on the full NCI-60 panel comprising cancer cell lines derived from nine human cancer cell types (leukemia, non-small-cell lung, colon, central nervous system, melanoma, ovarian, renal, prostate, and breast).[50]

tubulin colchicine site = tubulin colchicine site (Bos taurus, UniProt P81947+Q6B856); experiment: Inhibition of [3H]colchicine binding to tubulin; conditions: read-out: inhibition of colchicine binding % inhibition ± SD
Experimental: Reaction mixtures in the assembly assay contained 9 μM (0.9 mg/mL) tubulin in the assembly assay, and in the colchicine assay they contained 0.5 μM tubulin, 5.0 μM [^3H]colchicine, and 5.0 μM inhibitor.
Analysis of effects on tubulin polymerization was performed by turbidimetry at 350 nm in recording spectrophotometers equipped with electronic temperature controllers as described in detail elsewhere.[71] […] The binding of [^3H]colchicine to tubulin was perfomed as described in detail previously[72] except that the tubulin concentration was reduced from 0.1 mg/mL to 0.05 mg/mL and only one, instead of two, DEAE-cellulose filter was used for each reaction mixture.

bovine brain tubulin = bovine brain tubulin (Bos taurus, UniProt P81947+Q6B856); experiment: Inhibition of tubulin assembly (turbidimetry); assay type: biochemical; conditions: 9 μM (0.9 mg/mL) tubulin, 20 min at 30 °C; read-out: inhibition of tubulin assembly IC50 ± SD
HeLa cells = experiment: Flow cytometric cell cycle distribution; assay type: cell-based; conditions: 24 h
Experimental: To evaluate the effects of compounds 63, 66, and 75 on cell cycle progression, we first treated HeLa cells for 24 h.The cells were then labeled with propidium iodide (PI) and analyzed by flow cytometry. As shown in Figure 5 (panel B), compound 66 induced arrest of the cell cycle in the G2/M phase.
5 ×10^5 HeLa cells were treated with different concentrations of the test compounds for 24 h. After the incubation period, the cells were collected, centrifuged, and fixed with ice-cold ethanol (70%). The cells were treated with lysis buffer containing RNase A and 0.1% Triton X-100 and stained with PI. Samples were analyzed on a Cytomic FC500 flow cytometer (Beckman Coulter). DNA histograms were analyzed using MultiCycle for Windows (Phoenix Flow Systems).

[2] = test system: human peripheral blood lymphocytes not stimulated with PHA; experiment: Cytotoxicity in resting PBLs (MTT); assay type: cell-based; conditions: Lymphocyte, 72 h, mean ± SEM, three experiments, read-out: GI50 PBLresting
Experimental: (§2) PBLs were obtained from human peripheral blood (leucocyte rich plasma-buffy coats) from healthy volunteers using the Lymphoprep (Fresenius KABI Norge AS) gradient density centrifugation.
(§3) After extensive washing, cells were resuspended (1.0 × 10^6 cells/mL) in RPMI-1640 with 10% fetal bovine serum and incubated overnight. For cytotoxicity evaluations in proliferating PBL cultures, nonadherent cells were resuspended at 5 × 10^5 cells/mL in growth medium, containing 2.5 μg/mL PHA (Irvine Scientific). Different concentrations of the test compounds were added, and viability was determined 72 h later by the MTT test. For cytotoxicity evaluations in resting PBL cultures, nonadherent cells were resuspended (5 × 10^5 cells/mL) and treated for 72 h with the test compounds.

SK-MEL-2 = experiment: NCI-60 screen; assay type: cell-based; conditions: Homo sapiens, Melanoma
Experimental: as §1

[3] = test system: human peripheral blood lymphocytes stimulated with PHA; experiment: Cytotoxicity in PHA-stimulated PBLs (MTT); assay type: cell-based; conditions: Lymphocyte, 72 h, mean ± SEM, three experiments, read-out: GI50 PBLPHA
Experimental: as §2, §3

Sequence of tubulin colchicine site (Q6B856 whole entry): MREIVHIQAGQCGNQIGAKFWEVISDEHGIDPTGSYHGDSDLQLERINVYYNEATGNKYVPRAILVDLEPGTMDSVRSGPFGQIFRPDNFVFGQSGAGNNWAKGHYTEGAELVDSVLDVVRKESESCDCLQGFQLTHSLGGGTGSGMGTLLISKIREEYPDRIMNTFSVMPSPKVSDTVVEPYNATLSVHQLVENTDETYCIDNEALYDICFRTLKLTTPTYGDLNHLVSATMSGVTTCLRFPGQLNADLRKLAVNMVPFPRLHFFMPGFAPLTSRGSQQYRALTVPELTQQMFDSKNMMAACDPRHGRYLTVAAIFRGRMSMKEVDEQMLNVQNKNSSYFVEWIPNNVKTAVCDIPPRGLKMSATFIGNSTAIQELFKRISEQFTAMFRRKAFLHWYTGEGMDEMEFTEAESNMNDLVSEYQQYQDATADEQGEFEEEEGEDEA
Sequence of tubulin colchicine site (P81947 whole entry): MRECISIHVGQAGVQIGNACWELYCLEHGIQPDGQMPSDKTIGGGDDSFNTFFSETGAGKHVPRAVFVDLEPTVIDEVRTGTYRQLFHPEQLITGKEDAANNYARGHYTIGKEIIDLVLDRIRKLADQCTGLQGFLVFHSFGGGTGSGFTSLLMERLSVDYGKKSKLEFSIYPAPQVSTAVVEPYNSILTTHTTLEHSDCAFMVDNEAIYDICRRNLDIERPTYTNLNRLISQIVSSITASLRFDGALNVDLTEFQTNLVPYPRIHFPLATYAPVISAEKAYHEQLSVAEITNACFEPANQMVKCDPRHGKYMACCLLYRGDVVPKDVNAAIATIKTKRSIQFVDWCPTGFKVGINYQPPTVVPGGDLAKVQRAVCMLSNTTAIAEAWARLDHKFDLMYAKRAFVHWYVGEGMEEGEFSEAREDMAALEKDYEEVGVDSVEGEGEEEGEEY
Sequence of bovine brain tubulin (Q6B856 whole entry): as the sequence (Q6B856 whole entry) above
Sequence of bovine brain tubulin (P81947 whole entry): as the sequence (P81947 whole entry) above

Row | SMILES | GI50 (BT-549) | GI50 (NCI-H322M) | GI50 (HS 578T) | GI50 (SK-MEL-28) | GI50 (SNB-75) | GI50 (T-47D) | GI50 (RPMI-8226) | GI50 (OVCAR-8) | GI50 (NCI-H23) | GI50 (HCT-116) | GI50 (OVCAR-4) | GI50 (RXF 393) | GI50 (MDA-MB-231/ATCC) | GI50 (UACC-62) | GI50 (CCRF-CEM) | GI50 (MALME-3M) | GI50 (SNB-19) | GI50 (NCI-H226) | GI50 (HOP-62) | MG_MID (mean graph midpoint) [1] | also measured
1 | CCOC(=O)c1cc2c(n1Cc1ccccc1OC)-c1oncc1CCC2 [Compound 62, Ethyl 9-(2-Methoxybenzyl)-4,5,6,9-tetrahydropyrrolo[2′,3′:3,4]cyclohepta[1,2-d][1,2]oxazole-8-carboxylate] | 7.73 µM | 5.23 µM | 3.38 µM | > 100 µM | 1.97 µM | 2.46 µM | 4.11 µM | 3.85 µM | 8.52 µM | 3.79 µM | 9.35 µM | 2.08 µM | 9.12 µM | 3.37 µM | 2.87 µM | 3.08 µM | 64.7 µM | > 100 µM | 1.89 µM | 4.47 µM | GI50 (HOP-92): 0.3 µM; GI50 (SF-539): 2.48 µM; GI50 (OVCAR-5): > 100 µM; GI50 (SN12C): > 100 µM; GI50 (786–0): > 100 µM; GI50 (UO-31): 6.53 µM; GI50 (MDA-MB-468): 2.95 µM; GI50 (HCC-2998): > 100 µM; GI50 (U251): 3.78 µM; GI50 ([1]; Homo sapiens): 0.3 to 46.2 µM
2 | CCOC(=O)c1cc2c(n1Cc1cc(OC)c(OC)c(OC)c1)-c1oncc1CCC2 [Compound 67, Ethyl 9-(3,4,5-Trimethoxybenzyl)-4,5,6,9-tetrahydropyrrolo[2′,3′:3,4]cyclohepta[1,2-d][1,2]oxazole-8-carboxylate] | 0.29 µM | 0.32 µM | 0.34 µM | 0.3 µM | 0.07 µM | 0.1 µM | 0.38 µM | 0.24 µM | 0.37 µM | 0.19 µM | 0.72 µM | 0.12 µM | 0.48 µM | 0.05 µM | 0.3 µM | 0.05 µM | 0.56 µM | 1.21 µM | 0.17 µM | 0.20 µM | inhibition at 5 µM (tubulin colchicine site): 25 ± 0.01%; GI50 (SF-539): 0.12 µM; GI50 (OVCAR-5): 0.53 µM; GI50 (SN12C): 0.76 µM; GI50 (786–0): 0.97 µM; GI50 (UO-31): 0.08 µM; GI50 (MDA-MB-468): 0.74 µM; GI50 (HCC-2998): 0.3 µM; GI50 (U251): 0.14 µM; IC50 (bovine brain tubulin): 4.6 ± 0.8 µM; GI50 [1]: 0.01 to 64.9 µM
3 | CCOC(=O)c1c(Cl)c2c(n1Cc1ccccc1)-c1oncc1CCC2 [Compound 70, Ethyl 7-Chloro-9-benzyl-4,5,6,9-tetrahydropyrrolo[2′,3′:3,4]cyclohepta[1,2-d][1,2]oxazole-8-carboxylate] |  | > 100 µM |  |  |  | 2.69 µM | 3.27 µM |  |  | 4.02 µM |  |  | 3.51 µM | 4.01 µM | 2.21 µM | 3.68 µM | > 100 µM | > 100 µM | 4.35 µM | 7.08 µM | GI50 (OVCAR-5): > 100 µM; GI50 ([1]; Homo sapiens): 1.29 to 5.89 µM
4 | CCOC(=O)c1c(Cl)c2c(n1Cc1cc(OC)cc(OC)c1)-c1oncc1CCC2 [Compound 75, Ethyl 7-Chloro-9-(3,5-dimethoxybenzyl)-4,5,6,9-tetrahydropyrrolo[2′,3′:3,4]cyclohepta[1,2-d][1,2]oxazole-8-carboxylate] | 27 µM | 0.51 µM | 0.45 µM | 0.66 µM | 0.22 µM | 0.44 µM | 0.39 µM | 0.41 µM | 0.68 µM | 0.43 µM | 0.85 µM | 0.25 µM | 0.84 µM | 0.11 µM | 0.25 µM | 0.2 µM | 0.52 µM | 9.71 µM | 0.29 µM | 0.41 µM | concentration at which G2/M arrest first occurred (HeLa cells): 0.25 µM; inhibition at 5 µM (tubulin colchicine site): 42 ± 5%; GI50 [2]: > 100 µM; GI50 (SK-MEL-2): 0.22 µM; GI50 (HOP-92): 0.46 µM; GI50 (SF-539): 0.24 µM; GI50 (SN12C): 0.83 µM; GI50 (786–0): 4.24 µM; GI50 (UO-31): 0.78 µM; GI50 (MDA-MB-468): 0.73 µM; GI50 (U251): 0.31 µM; IC50 (bovine brain tubulin): 1.9 ± 0.1 µM; GI50 ([1]; Homo sapiens): 0.03 to 27 µM; GI50 [3]: > 100 µM
